Test results as given in patent US9408850B2, “Substituted indazole derivatives active as kinase inhibitors” (NERVIANO MEDICAL SCIENCES S.R.L., priority 2011, dated 2016).
Counter-ions that a name gives are not always drawn.

Key:
[1] = molecular target: KIT cytoplasmic domain (GST fused protein) (Homo sapiens (Human), UniProt P10721); test: Biochemical assay for inhibitors of KIT kinase activity; details: 4 nM pre activated enzyme, 4.4 microM ATP, 60 minutes at r.t.
Method: KIT cytoplasmic domain (aa 544-976end of the 976 aminoacid long full length sequence, accession number P10721 of UniProtKB/Swiss-Prot database) was cloned into pVL vector for expression in insect cells through the baculovirus system. The GST-KIT cytoplasmic domain has been expressed in Sf21 cells infected for 66 hrs at 27° C. The recombinant protein has been purified by affinity on GSH-sepharose and eluted with glutathione. […] General Principle-A specific peptidic substrate was trans-phosphorylated by the kinase in the presence of ATP traced with 33Pγ-ATP. At the end of the phosphorylation reaction, the not reacted ATP, cold and radioactive, was captured by an excess of dowex ion exchange resin that eventually settled by gravity to the bottom of the reaction plate. The supernatant was subsequently withdrawn and transferred into a counting plate that was then evaluated by β-counting. • ii. Dowex resin preparation-500 g of wet resin (SIGMA, custom prepared resin DOWEX 1×8 200-400 mesh, 2.5 Kg) were weighed out and diluted to 2 L in 150 mM sodium formate, pH 3.00. The resin was allowed to settle down overnight and then the supernatant was discarded. After three washes as above over a couple of days, the resin was allowed to settle and two volumes (with respect to the resin volume) were added of 150 mM sodium formate buffer. Biochemical Assay for Inhibitors of FLT3 Kinase Activity • i. Enzyme-The assay was performed using FLT3 cytoplasmic domain product and purified in house as GST fused protein. […] The peptide was purchased from American Peptide Company (Sunnyvale, Calif.). Biochemical Assay for Inhibitors of KIT Kinase Activity • i. Enzyme-The assay has been performed using KIT cytoplasmic domain product and purified in house as GST fused protein. […] NO: 2). The peptide was purchased from American Peptide Company (Sunnyvale, Calif.). Compound Testing • i. […] An automated station for serial dilutions (Biomek FX, Beckman) was used for producing 1:3 dilutions in 100% DMSO, from line A1 to A10, and for all the compounds in the column. […] The following dispensation into the plates plus 3 cycles of mixing, done by the robot itself, started the kinase reaction. At this point, the correct concentrations were restored for all the reagents. The robot incubated the plates for 60 minutes at r.t., and then stopped the reaction by pipetting 60 microL of dowex resin suspension into the reaction mix. In order to avoid tip clogging, wide bore tips were used to dispense the resin suspension. Three cycles of mixing were done immediately after the addition of the resin. Another mixing cycle was performed after all the plates were stopped, this time using normal tips: the plates were then allowed to rest for about one hour in order to allow resin sedimentation. […] Data Fitting-Data were analyzed by an internally customized version of the SW package “Assay Explorer” that provided sigmoidal fitting of the ten-dilutions curves for IC50 determination in the secondary assays/hit confirmation routines. Cell-Based Assays for Inhibitors of FLT3 Kinase Activity In vitro Cell Proliferation Assay for Inhibitors of FLT3 Kinase Activity

[2] = test system: MV-4-11 cells, bearing a FLT3-ITD mutation; test: In vitro cell proliferation assay (CellTiter-Glo), MV-4-11; format: cell-based; details: Homo sapiens, MV4-11, MV-4-11, 72 h
Method: (§1) The human acute leukemia MOLM-13 AND MV-4-11 cells, bearing a FLT3-ITD mutation, were seeded (5000 cells/well) in white 384 well-plates in complete medium (RPMI 1640 plus 10% Fetal bovine serum) and treated with compounds dissolved in 0.1% DMSO, 24 h after seeding. The cells were incubated at 37° C. and 5% CO2 and after 72 h the plates were processed using CellTiter-Glo assay (Promega) following the manufacturer's instruction.
(§2) CellTiter-Glo is a homogenous method based on the quantification of the ATP present, an indicator of metabolitically active cells. ATP was quantified using a system based on luciferase and D-luciferin resultant into light generation. The luminescent signal was proportional to the number of cells present in culture.
(§3) Briefly, 25 microL/well reagent solution were added to each well and, after 5 minutes shaking, microplates were read by Envision (PerkinElmer) luminometer. Inhibitory activity was evaluated comparing treated versus control data using Symyx Assay Explorer (Symyx Technologies Inc.) program. IC50 was calculated using sigmoidal interpolation curve.

[3] = molecular target: FLT3 cytoplasmic domain (GST fused protein) (Homo sapiens (Human), UniProt P36888); test: Biochemical assay for inhibitors of FLT3 kinase activity; details: 2 nM pre activated enzyme, 254 microM ATP, 60 minutes at r.t.
Sequence of FLT3 cytoplasmic domain (GST fused protein) (P36888 564-993): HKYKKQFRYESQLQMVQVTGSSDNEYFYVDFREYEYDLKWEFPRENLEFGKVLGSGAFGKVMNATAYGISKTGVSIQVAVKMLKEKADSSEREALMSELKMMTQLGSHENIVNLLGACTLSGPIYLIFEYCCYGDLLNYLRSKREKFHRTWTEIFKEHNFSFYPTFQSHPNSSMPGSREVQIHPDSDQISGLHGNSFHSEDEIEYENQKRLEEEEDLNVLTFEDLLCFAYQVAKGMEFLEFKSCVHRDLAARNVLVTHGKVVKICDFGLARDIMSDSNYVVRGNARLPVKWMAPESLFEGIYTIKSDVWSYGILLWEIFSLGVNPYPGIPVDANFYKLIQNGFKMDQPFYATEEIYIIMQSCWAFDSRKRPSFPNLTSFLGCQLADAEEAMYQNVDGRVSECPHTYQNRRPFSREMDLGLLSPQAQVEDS
Method: FLT3 cytoplasmic domain (aa 564-993end of the 993 aminoacid long full length sequence, accession number P36888 of UniProtKB/Swiss-Prot. database) was amplified by PCR starting from a testis cDNA library and then cloned into pVL vector for expression in insect cells through the baculovirus system. The GST-FLT3 cytoplasmic domain has been expressed in Sf21 cells infected for 72 hours at 27° C. The recombinant protein has been purified by affinity on GSH-sepharose and eluted with glutathione. A further purification step has been performed on heparine sepharose. […] General Principle-A specific peptidic substrate was trans-phosphorylated by the kinase in the presence of ATP traced with 33Pγ-ATP. At the end of the phosphorylation reaction, the not reacted ATP, cold and radioactive, was captured by an excess of dowex ion exchange resin that eventually settled by gravity to the bottom of the reaction plate. The supernatant was subsequently withdrawn and transferred into a counting plate that was then evaluated by β-counting. • ii. Dowex resin preparation-500 g of wet resin (SIGMA, custom prepared resin DOWEX 1×8 200-400 mesh, 2.5 Kg) were weighed out and diluted to 2 L in 150 mM sodium formate, pH 3.00. The resin was allowed to settle down overnight and then the supernatant was discarded. After three washes as above over a couple of days, the resin was allowed to settle and two volumes (with respect to the resin volume) were added of 150 mM sodium formate buffer. Biochemical Assay for Inhibitors of FLT3 Kinase Activity • i. Enzyme-The assay was performed using FLT3 cytoplasmic domain product and purified in house as GST fused protein. […] NO: 1). The peptide was purchased from American Peptide Company (Sunnyvale, Calif.). Biochemical Assay for Inhibitors of KIT Kinase Activity • i. Enzyme-The assay has been performed using KIT cytoplasmic domain product and purified in house as GST fused protein. […] NO: 2). The peptide was purchased from American Peptide Company (Sunnyvale, Calif.). Compound Testing • i. […] An automated station for serial dilutions (Biomek FX, Beckman) was used for producing 1:3 dilutions in 100% DMSO, from line A1 to A10, and for all the compounds in the column. […] The following dispensation into the plates plus 3 cycles of mixing, done by the robot itself, started the kinase reaction. At this point, the correct concentrations were restored for all the reagents. The robot incubated the plates for 60 minutes at r.t., and then stopped the reaction by pipetting 60 microL of dowex resin suspension into the reaction mix. In order to avoid tip clogging, wide bore tips were used to dispense the resin suspension. Three cycles of mixing were done immediately after the addition of the resin. Another mixing cycle was performed after all the plates were stopped, this time using normal tips: the plates were then allowed to rest for about one hour in order to allow resin sedimentation. […] Data Fitting-Data were analyzed by an internally customized version of the SW package “Assay Explorer” that provided sigmoidal fitting of the ten-dilutions curves for IC50 determination in the secondary assays/hit confirmation routines. Cell-Based Assays for Inhibitors of FLT3 Kinase Activity In vitro Cell Proliferation Assay for Inhibitors of FLT3 Kinase Activity

[4] = test system: MOLM-13 cells, bearing a FLT3-ITD mutation; test: In vitro cell proliferation assay (CellTiter-Glo), MOLM-13; format: cell-based; details: Homo sapiens, MOLM-13, 72 h
Method: as §1, §2, §3

Sequence of KIT cytoplasmic domain (GST fused protein) (P10721 544-976): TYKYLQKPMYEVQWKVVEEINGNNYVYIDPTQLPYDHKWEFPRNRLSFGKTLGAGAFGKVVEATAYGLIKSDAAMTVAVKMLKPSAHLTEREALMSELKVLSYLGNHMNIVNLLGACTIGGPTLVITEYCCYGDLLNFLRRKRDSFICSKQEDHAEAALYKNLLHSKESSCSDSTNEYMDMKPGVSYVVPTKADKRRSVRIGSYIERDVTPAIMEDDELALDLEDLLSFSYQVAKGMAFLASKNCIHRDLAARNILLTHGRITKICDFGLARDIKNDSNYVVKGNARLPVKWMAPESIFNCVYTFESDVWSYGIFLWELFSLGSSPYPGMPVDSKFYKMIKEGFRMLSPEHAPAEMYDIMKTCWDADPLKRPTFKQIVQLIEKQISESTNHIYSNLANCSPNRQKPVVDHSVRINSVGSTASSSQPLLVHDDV

Structure (SMILES) | IC50 [1] [µM] | IC50 [2] [µM] | IC50 [3] [µM] | IC50 [4] [µM]
CN1CCN(c2ccc(C(=O)Nc3n[nH]c4cc(OCCOCc5ccncc5)ccc34)cc2)CC1 [Cpd. 35, 4-(4-Methyl-piperazin-1-yl)-N-{6-[2-(pyridin-4-ylmethoxy)-ethoxy]-1H-indazol-3-yl}-benzamide] | 2.37 | < 0.05 | 1.18 | < 0.05
CN(C)Cc1ccc(C(=O)Nc2n[nH]c3cc(OCCOCc4ccccc4)ccc23)cc1 [Cpd. 21, N-[6-(2-Benzyloxy-ethoxy)-1H-indazol-3-yl]-4-dimethylaminomethyl-benzamide] | 0.134 | < 0.05 | 0.104 | –
CN1CCN(c2ccc(C(=O)Nc3n[nH]c4cc(OCCOCc5ccccc5F)ccc34)cc2)CC1 [Cpd. 30, N-{6-[2-(2-Fluoro-benzyloxy)-ethoxy]-1H-indazol-3-yl}-4-(4-methyl-piperazin-1-yl)-benzamide] | 1.41 | < 0.05 | 0.166 | < 0.05
O=C(Nc1n[nH]c2cc(OCCOCc3ccccc3)ccc12)c1ccc(N2CCNCC2)cc1 [Cpd. 20, N-[6-(2-Benzyloxy-ethoxy)-1H-indazol-3-yl]-4-piperazin-1-yl-benzamide] | 0.052 | < 0.05 | < 0.05 | < 0.05
O=C(Nc1n[nH]c2cc(OCCOCc3ccccc3)ccc12)c1ccc(NC2CCOCC2)cc1 [Cpd. 26, N-[6-(2-Benzyloxy-ethoxy)-1H-indazol-3-yl]-4-(tetrahydro-pyran-4-ylamino)-benzamide] | 0.124 | < 0.05 | 0.09 | < 0.05
CN1CCN(c2ccc(C(=O)Nc3n[nH]c4cc(OCCOc5ccccc5)ccc34)cc2)CC1 [Cpd. 10, 4-(4-Methyl-piperazin-1-yl)-N-[6-(2-phenoxy-ethoxy)-1H-indazol-3-yl]-benzamide] | 0.956 | – | < 0.05 | –
O=C(Nc1n[nH]c2cc(OCCOCc3ccccc3)ccc12)c1ccc(N2CC(N3CCCC3)C2)cc1 [Cpd. 28, N-[6-(2-Benzyloxy-ethoxy)-1H-indazol-3-yl]-4-(3-pyrrolidin-1-yl-azetidin-1-yl)-benzamide] | 0.306 | – | 0.136 | –
CN1CCN(c2ccc(C(=O)Nc3n[nH]c4cc(Oc5ccccc5)ccc34)cc2)CC1 [Cpd. 2, 4-(4-Methyl-piperazin-1-yl)-N-(6-phenoxy-1H-indazol-3-yl)-benzamide] | 0.172 | – | 1.13 | –
CN(c1ccc(C(=O)Nc2n[nH]c3cc(OCCOCc4ccccc4)ccc23)cc1)C1CC[N+](C)([O-])CC1 (stereo not shown) [Cpd. 41, N-[6-(2-Benzyloxy-ethoxy)-1H-indazol-3-yl]-4-[methyl-(1-methyl-1-oxy-piperidin-4-yl)-amino]-benzamide] | 0.18 | < 0.05 | 0.052 | < 0.05
CN1CCN(c2cccc(C(=O)Nc3n[nH]c4cc(OCCOCc5ccccc5)ccc34)c2)CC1 [Cpd. 29, N-[6-(2-Benzyloxy-ethoxy)-1H-indazol-3-yl]-3-(4-methyl-piperazin-1-yl)-benzamide hydrochloride] | 1.08 | – | 0.635 | –
CN1CCN(c2ccc(C(=O)Nc3n[nH]c4cc(Oc5cccc(OCc6ccccc6)c5)ccc34)cc2)CC1 [Cpd. 9, N-[6-(3-Benzyloxy-phenoxy)-1H-indazol-3-yl]-4-(4-methyl-piperazin-1-yl)-benzamide] | 0.713 | – | 1.5 | –
CN1CCN(c2ccc(C(=O)Nc3n[nH]c4cc(OC/C=C/c5ccccc5)ccc34)cc2)CC1 [Cpd. 39, 4-(4-Methyl-piperazin-1-yl)-N-[6-((E)-3-phenyl-allyloxy)-1H-indazol-3-yl]-benzamide] | 0.528 | – | 0.062 | –
O=C(Nc1n[nH]c2cc(OCCOCc3ccccc3)ccc12)c1ccc(N2CCOCC2)cc1 [Cpd. 24, N-[6-(2-Benzyloxy-ethoxy)-1H-indazol-3-yl]-4-morpholin-4-yl-benzamide] | 0.26 | < 0.05 | 0.162 | < 0.05
CN1CCN(c2ccc(C(=O)Nc3n[nH]c4cc(OCCOCc5ccccc5)ccc34)cc2)CC1 [Cpd. 11, N-[6-(2-Benzyloxy-ethoxy)-1H-indazol-3-yl]-4-(4-methyl-piperazin-1-yl)-benzamide] | 0.113 | – | < 0.05 | –
COc1ccc(COCCOc2ccc3c(NC(=O)c4ccc(N5CCN(C)CC5)cc4)n[nH]c3c2)cc1 [Cpd. 40, N-{6-[2-(4-Methoxy-benzyloxy)-ethoxy]-1H-indazol-3-yl}-4-(4-methyl-piperazin-1-yl)-benzamide] | 0.088 | – | < 0.05 | –
